Measurements published in US20070173488A1, “Pyrazolothiazole Protein Kinase Modulators” (SGX Pharmaceuticals, Inc., priority 2005, published 2007).

Tests used:
AurA = molecular target: T1, AurA (Homo sapiens, UniProt O14965); experiment: AurA Luminescence-based Enzyme Assay (Kinase-Glo); assay type: biochemical
T1 construct: made in house; host or cells: Sf9 insect cells
T1 sequence (O14965 1-403): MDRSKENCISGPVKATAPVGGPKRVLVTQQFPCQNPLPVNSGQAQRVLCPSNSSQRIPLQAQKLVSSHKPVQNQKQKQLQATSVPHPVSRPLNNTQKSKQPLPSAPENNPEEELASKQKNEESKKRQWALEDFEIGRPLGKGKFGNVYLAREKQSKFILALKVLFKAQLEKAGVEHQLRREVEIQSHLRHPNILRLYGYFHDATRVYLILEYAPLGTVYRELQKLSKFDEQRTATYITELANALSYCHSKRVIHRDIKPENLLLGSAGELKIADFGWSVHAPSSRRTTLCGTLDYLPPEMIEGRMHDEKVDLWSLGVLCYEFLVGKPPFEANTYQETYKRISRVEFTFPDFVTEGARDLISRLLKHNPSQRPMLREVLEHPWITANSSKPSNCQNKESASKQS
From the text: Homogeneous luminescence-based inhibitor screening assays were developed for c-Abl, MET, AurA, and PDK1 kinases (among others). Each of these assays made use of an ATP depletion assay (Kinase-Glo™, Promega Corporation, Madison, Wis.) to quantitate kinase activity. The Kinase-Glo™ format uses a thermostable luciferase to generate luminescent signal from ATP remaining in solution following the kinase reaction. The luminescent signal is inversely correlated with the amount of kinase activity.
Dose response was analyzed using the equation: y=min+{(max−min)/(1 +10^[compound]-logIC50)}, where y is the observed initial slope, max=the slope in the absence of inhibitor, min=the slope at infinite inhibitor, and the IC50 is the [compound] that corresponds to ½ the total observed amplitude (Amplitude=max−min).
The Sf9 insect cell pellets (˜18 g) produced from 6 L of cultured cells expressing human Aurora-2 were resuspended in 50 mM Na Phosphate pH 8.0, 500 mM NaCl, 10% glycerol, 0.2% n-octyl-β-D-glucopyranoside (BOG) and 3 mM β-Mercaptoethanol (BME). One tablet of Roche Complete, EDTA-free protease inhibitor cocktail (Cat# 1873580) and 85 units Benzonase (Novagen Cat#70746-3)) were added per 1 L of original culture. Pellets were resuspended in approximately 50 ml per 1 L of original culture and were then sonicated on ice with two 30-45 sec bursts (100% duty cycle). Debris was removed by centrifugation and the supernatant was passed through a 0.8 μm syringe filter before being loaded onto a 5 ml Ni^2+ HiTrap column (Pharmacia). The column was washed with 6 column volumes of 50 mM Na Phosphate pH 8.0, 500 mM NaCl, 10% glycerol, 3 mM BME. The protein was eluted using a linear gradient of the same buffer containing 500 mM Imidazole. The eluant (24 ml) was cleaved overnight at 4° C. in a buffer containing 50 mM Na Phosphate pH 8.0, 500 mM NaCl, 10% glycerol, 3 mM BME and 10,000 units of TEV (Invitrogen Cat#10127-017). The protein was passed over a second nickel affinity column as described above; the flow-through was collected. The cleaved protein fractions were combined and concentrated using spin concentrators. Further purification was done by gel filtration chromatography on a S75 sizing column in 50 mM Na Phosphate (pH 8.0), 250mM NaCl, 1 mM EDTA, 0.1 mM AMP-PNP or ATP buffer, and 5 mM DTT. The cleanest fractions were combined and concentrated to approximately 8-11 mg/ml, and were either flash frozen in liquid nitrogen in 120 μl aliquots and stored at −80° C., or stored at 4° C.
AurA Luminescence-based Enzyme Assay
Materials: Kemptide peptide substrate=LRRASLG (Biopeptide, San Diego, Calif.), ATP (Sigma Cat#A-3377, FW=551), HEPES buffer, pH 7.5, 10% Brij 35 (Calbiochem Cat# 203728), MgCl2, Staurosporine (Streptomyces sp. Sigma Cat#85660-1MG), white Costar 384-well flat -bottom plate (VWR Cat#29444-088), Autophosphorylated AurA kinase (see below), Kinase-Glo™ (Promega Cat#V6712).
Stock Solutions: 10 mM Kemptide peptide (7.72 mg/ml in water), stored at −20° C.; 100 mM HEPES buffer +0.015% Brij 35, pH 7.5 (5 ml 1M HEPES stock +75 μL 10% Brij 35+45 ml miliQH2O); 10 mM ATP (5.51 mg/ml in dH2O) stored at −20° C. (diluted 50 μl into total of 10 ml miliQH2O daily=50 μM ATP working stock); 100 mM MgCl2; 200 μM Staurosporine, 2× Kinase-Glo™ reagent (made fresh or stored at −20° C.).
AurA Autophosphorylation Reaction: ATP and MgCl2 were added to 1-5 mg/ml AurA at final concentrations of 10 mM and 100 mM, respectively. The autophosphorylation reaction was incubated at 21° C. for 2-3 h. The reaction was stopped by the addition of EDTA to a final concentration of 50 mM, and samples were flash frozen with liquid N2 and stored at −80° C.
Standard Assay Setup for 384-well format (20 μl kinase reaction, 40 μL detection reaction): 10 mM MgCl2; 0.2mM Kemptide peptide; 1 μl test compound (in DMSO); 0.3 μg/ml Autophosphorylated AurA kinase; 10 μM ATP; 100 mM HEPES+0.015% Brij buffer. Positive controls contained DMSO with no test compound. […]

CDK4/CycD1 = molecular target: T2, CDK4/CycD1 (Homo sapiens, UniProt P11802); experiment: 33PanQuinase Activity Assay (ProQuinase GmbH); assay type: biochemical
T2 construct: purchased ProQuinase GmbH, Freiburg, Germany (assay service)
From the text: ^33PanQuinase Activity Assay (ProQuinase GmbH) and SelectScreen™ Kinase Profiling (Invitrogen Corp.)
^33PanQuinase Activity Assay is a proprietary, radioisotopic protein kinase assay developed by ProQuinase GmbH, Freiburg, Germany. Details on assay conditions can be found on the company's website.

GTL16 cells = experiment: 96-well XTT cell survival assay (GTL16 cells); assay type: cell-based; conditions: Homo sapiens, GTL 16, 72 hours
Experimental: GTL16 cells were maintained in DMEM Medium supplemented with 10% fetal bovine serum (FBS) 2 mM L-Glutamine and 100 units penicillin/100 μg streptomycin, at 37° C. in 5% CO2.
Compounds were tested in the following assays in duplicate.
96-well XTT assay (GLT16 cells): One day prior to assay the growth media was aspirated off and assay media was added to cells. On the day of the assay, the cells were grown in assay media containing various concentrations of compounds (duplicates) on a 96-well flat bottom plate for 72 hours at 37° C. in 5% CO2. The starting cell number was 5000 cells per well and volume was 120 μl. At the end of the 72-hour incubation, 40 μl of XTT labeling mixture (50:1 solution of sodium 3′-[1-(phenylaminocarbonyl)-3,4-tetrazolium]-bis (4-methoxy-6-nitro) benzene sulfonic acid hydrate and Electron-coupling reagent: PMS (N-methyl dibenzopyrazine methyl sulfate) were added to each well of the plate. After an additional 5 hours of incubation at 37° C., the absorbance reading at 450 nm with a background correction of 650 nm was measured with a spectrophotometer.

T2 sequence (P11802 whole entry): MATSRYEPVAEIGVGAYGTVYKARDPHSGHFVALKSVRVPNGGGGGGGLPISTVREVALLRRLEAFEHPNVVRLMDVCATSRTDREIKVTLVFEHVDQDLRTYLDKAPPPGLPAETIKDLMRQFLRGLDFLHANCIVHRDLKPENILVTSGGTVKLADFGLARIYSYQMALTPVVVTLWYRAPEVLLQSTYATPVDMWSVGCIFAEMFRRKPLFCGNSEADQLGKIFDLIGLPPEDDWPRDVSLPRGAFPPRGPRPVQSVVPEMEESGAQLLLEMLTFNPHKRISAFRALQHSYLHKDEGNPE
T2 sequence (P24385 whole entry partner): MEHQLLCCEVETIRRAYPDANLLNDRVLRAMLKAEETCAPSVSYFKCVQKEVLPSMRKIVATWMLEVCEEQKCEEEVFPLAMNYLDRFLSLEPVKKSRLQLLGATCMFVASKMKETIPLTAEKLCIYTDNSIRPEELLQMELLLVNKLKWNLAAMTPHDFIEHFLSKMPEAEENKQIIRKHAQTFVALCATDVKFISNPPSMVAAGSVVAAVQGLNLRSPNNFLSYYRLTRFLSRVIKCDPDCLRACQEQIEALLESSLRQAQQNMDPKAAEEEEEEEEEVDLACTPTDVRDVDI

IC50 (AurA)	IC50 (CDK4/CycD1)	Compound	IC50 (GTL16 cells)
< 0.1 µM	< 0.1 µM	O=C(Nc1nc2[nH]nc(-n3cncc3-c3c(Cl)cccc3Cl)c2s1)C1CC1 [Cyclopropanecarboxylic acid {3-[5-(2,6-dichloro-phenyl)-imidazol-1-yl]-1H-pyrazolo[3,4-d]thiazol-5-yl}-amide]	< 0.1 µM
0.1 to 1 µM		CS(=O)(=O)c1ccc(F)cc1-c1cncn1-c1n[nH]c2nc(NC(=O)C3CC3)sc12 [Cyclopropanecarboxylic acid {3-[5-(5-fluoro-2-methanesulfonyl-phenyl)-imidazol-1-yl]-1H-pyrazolo[3,4-d]thiazol-5-yl}-amide]	
> 10 µM		O=C(Nc1nc2[nH]nc(-n3cncc3-c3ccccn3)c2s1)C1CC1 [Cyclopropanecarboxylic acid [3-(5-pyridin-2-yl-imidazol-1-yl)-1H-pyrazolo[3,4-d]thiazol-5-yl]-amide]	
1 to 10 µM		O=C(Nc1nc2[nH]nc(-n3cncc3-c3ccccc3)c2s1)C1CC1 [Cyclopropanecarboxylic acid [3-(5-phenyl-imidazol-1-yl)-1H-pyrazolo[3,4-d]thiazol-5-yl]-amide]	1 to 10 µM
1 to 10 µM		O=C(Nc1nc2[nH]nc(-n3cncc3-c3ccc4ccccc4c3)c2s1)C1CC1 [Cyclopropanecarboxylic acid [3-(5-naphthalen-2-yl-imidazol-1-yl)-1H-pyrazolo[3,4-d]thiazol-5-yl]-amide]	
< 0.1 µM	< 0.1 µM	O=C(Nc1nc2[nH]nc(-n3cncc3-c3ccccc3Cl)c2s1)C1CC1 [Cyclopropanecarboxylic acid {3-[5-(2-chloro-phenyl)-imidazol-1-yl]-1H-pyrazolo[3,4-d]thiazol-5-yl}-amide]	0.1 to 1 µM
1 to 10 µM	< 0.1 µM	O=C(Nc1nc2[nH]nc(-n3cncc3-c3cccc(F)c3F)c2s1)C1CC1 [Cyclopropanecarboxylic acid {3-[5-(2,3-difluoro-phenyl)-imidazol-1-yl]-1H-pyrazolo[3,4-d]thiazol-5-yl}-amide]	1 to 10 µM
> 10 µM		COc1ccc2nc(Cl)c(-c3cncn3-c3n[nH]c4nc(NC(=O)C5CC5)sc34)cc2c1 [Cyclopropanecarboxylic acid {3-[5-(2-chloro-6-methoxy-quinolin-3-yl)-imidazol-1-yl]-1H-pyrazolo[3,4-d]thiazol-5-yl}-amide]	
< 0.1 µM		O=C(Nc1nc2[nH]nc(-n3cncc3-c3c(Cl)ccc(Cl)c3Cl)c2s1)C1CC1 [Cyclopropanecarboxylic acid {3-[5-(2,3,6-trichloro-phenyl)-imidazol-1-yl]-1H-pyrazolo[3,4-d]thiazol-5-yl}-amide]	0.1 to 1 µM
1 to 10 µM	0.1 to 1 µM	O=C(Nc1cc[nH]n1)Nc1nc2[nH]nc(-n3cncc3-c3ccccc3Cl)c2s1 [1-{3-[5-(2-Chloro-phenyl)-imidazol-1-yl]-1H-pyrazolo[3,4-d]thiazol-5-yl}-3-(1H-pyrazol-3-yl)-urea]	< 0.1 µM
0.1 to 1 µM	1 to 10 µM	O=C(Nc1nc2[nH]nc(-n3cncc3-c3cc(Cl)cc(Cl)c3Cl)c2s1)C1CC1 [Cyclopropanecarboxylic acid {3-[5-(2,3,5-trichloro-phenyl)-imidazol-1-yl]-1H-pyrazolo[3,4-d]thiazol-5-yl}-amide]	
0.1 to 1 µM	< 0.1 µM	NC(=O)COc1ccc(-c2cncn2-c2n[nH]c3nc(NC(=O)C4CC4)sc23)c(Cl)c1 [Cyclopropanecarboxylic acid {3-[5-(4-carbamoylmethoxy-2-chloro-phenyl)-imidazol-1-yl]-1H-pyrazolo[3,4-d]thiazol-5-yl}-amide]	
